The values below come from a melting point compilation (Tetko et al.; mined from patent text by program, amines drawn as free bases though some values may be those of a salt).

A word on the melting point: it is the temperature, or range, at which the solid turns liquid.

Regarding `CC(C)c1cccc(C(C)C)c1OCC(=O)O`, the melting point is 84 to 87 °C.
Molecule `CC(=O)SCC(CC(C)C)C(=O)Nc1cc(C)cc(C(=O)O)c1` (centres undefined) displayed a melting point of 185 to 187 °C.
Molecule `O=S(=O)(c1ccccc1)n1cnc(-c2ccc(F)cc2)c1-c1ccc(F)cc1` gave a melting point of 172 to 175 °C.
The molecule `COC(=O)c1cc(Br)n2c1CN(C(=O)OC(C)(C)C)CC2` had a melting point of 109 °C.
Molecule `CCCN(CCC)C1Cc2cccc(C(=O)O)c2NC1=O` (centres undefined) yielded a melting point of 214 to 217 °C.
In the case of `CCCCCCNC(=O)[C@@H]1CCC(=O)N1` it was 95 °C; in that of `N#Cc1c(-c2ccc(Cl)c(Cl)c2)cc(C2CC2)[nH]c1=O`, 290 to 295 °C; in that of `COc1ccc(CCN2CCC(=C3c4ccn(C)c4CCn4ncnc43)CC2)cc1`, 139 °C.
As to `COC(=O)c1cc(Br)c(C=O)o1`, the melting point lay in the range of 83 to 84 °C.
Turning to `CNC(=O)c1cc(N2CCOCC2)cc([N+](=O)[O-])c1`, the melting point lay in the range of 204 to 207 °C.
In the case of `CCC(COC)Nc1nc(C)nc(N2CCc3cc(OC)cc(Cl)c32)c1C#N` (centres undefined) it was 182 to 183 °C.
The result for `CC(=O)N1CCN(N)c2ccccc2C1` reads 66 to 68 °C; that for `C(=C(c1ccccc1)c1ccccc1)P(c1ccccc1)c1ccccc1`, 116 to 118 °C.
Molecule `CCOC(=O)c1ccc(-c2cnc3c(c2)N(Cc2ccccc2)CCN3)cc1` returned a melting point of 178 to 179 °C.
In the case of `CCOC(=O)Cn1c(=O)n(-c2ccccc2Cl)c(=O)c2c(C)c(C(=O)OCC)c(C)cc21` it was 158 to 159 °C; in that of `COC(=O)c1ccc(-c2ccccn2)cc1`, 96 °C.
The result for `CCCCCCCCCCCCCCCCS(=O)(=O)NCCCCCCCN(C)C` reads 56 to 57.5 °C.
`Cc1cc(Oc2ncc(C(F)(F)F)cc2Cl)nn1C(=O)Nc1cccc(C(F)(F)F)c1` yielded a melting point of 123 to 124 °C.
In the case of `CS(=O)(=O)OCC(c1ccccc1)c1ccccc1` it was 101 to 102 °C.
The result for `COc1ccccc1-c1nc(N)c(C#N)nc1-c1ccc(=O)n(C(C)C)c1` reads 223 °C; that for `CON=C1CN(c2cc3c(cc2F)c(=O)c(C(=O)O)cn3-c2ccc(F)cc2F)CC12CN(C(=O)OC(C)(C)C)C2`, 263 to 264 °C; that for `CC1CC(=O)NN=C1c1ccc2c(c1)N(C(C)C)C(=O)C(C)O2` (centres undefined), 204 to 205 °C.
`CCn1c2ccccc2c2cc(C=C(C#N)c3ccc(C(F)(F)F)cc3)ccc21`: the melting point was 164 to 165 °C.
The result for `Fc1ccccc1-c1ccnc2ncnn12` reads 168 to 172 °C; that for `O=S1(=O)NCN(C2CCCCCCC2)c2cc(Cl)ccc21`, 141 to 143 °C; that for `COC(Cc1nsc(N)n1)OC`, 62 to 66.5 °C.
Take `O=[N+]([O-])c1cc(C(F)(F)C(F)(F)C(F)(F)/C=C/C(F)(F)C(F)(F)C(F)(F)c2ccc(O)c([N+](=O)[O-])c2)ccc1O`: the melting point is 122 to 123 °C.
Take `CCOCc1c(C)nc2c3cccc(Cl)c3ccn12`: the melting point lay within 94 to 96 °C.
Molecule `CC12CC(N3CCC4(CC3)OCCO4)C(O)CC1CCC1C2CCC2(C)C(O)C(N3CCCC3)CC12` (centres undefined) showed a melting point of 184 to 187 °C.
The result for `Cc1cccc(NC(=O)NC(C(=O)N(c2ccccc2)c2ccccc2)c2ccccc2)c1` (racemic) reads 181 °C.
In the case of `COC(=O)c1cc(-c2ccc(OCc3ccccc3)cc2)c(=O)n2ccc3ccsc3c12` it was 169 to 171 °C; in that of `CCOC(=O)c1c(C)oc2cc(N(C(C)=O)S(C)(=O)=O)c(Oc3ccccc3)cc2c1=O`, 166 to 168 °C.
Molecule `N=C(NO)c1ccc(-c2cccc(-c3nc4cc(C(=N)NO)ccc4[nH]3)c2O)cc1` yielded a melting point of 322 to 325 °C.
In turn, `O=C(O)c1ccc(-c2nn(-c3ccc(C(=O)O)cc3)c3ccc([N+](=O)[O-])cc23)cc1` returned a melting point of 348 to 350 °C.
The result for `COc1cc2c(cc1OC)-c1[nH]c3ccc([N+](=O)[O-])cc3c1CC(=O)N2` reads greater than 330 °C; that for `CC(CBr)=C(C(=O)OCc1ccccc1)N1C(=O)C(Br)(Br)C1Br` (centres undefined), 84 to 85 °C; that for `COCCN(C)Cc1cc(C(=O)Nc2nc3c(OC)ccc(C4COCCOC4)c3s2)ccn1`, 100 to 107 °C.
The result for `CC(c1ccc(OC(=O)CCl)cc1)(c1ccc(OC(=O)CCl)cc1)c1ccc(OC(=O)CCl)cc1` reads 144 to 146 °C; that for `O=[N+]([O-])C=Cc1cc(OCc2ccccc2)c(OCc2ccccc2)cc1[N+](=O)[O-]`, 162 to 164 °C; that for `COCc1c(S(C)(=O)=O)ccc(C(=O)C2SCCCC2=O)c1C` (centres undefined), 152 to 154 °C.
Molecule `Cn1c(=O)c2c(Cl)cc(Cl)cc2n(Cc2ccccc2)c1=O` yielded a melting point of 166 to 169 °C.
The molecule `COCCOCc1ccc(-c2ccc(C(=O)Nc3ccc(OC)c(N4CCN(C)CC4)c3)cc2)c(C)c1` showed a melting point of 147 to 148 °C.
Molecule `Nc1cc(F)c(Cl)c(Br)c1Cl` had a melting point of 126 to 130 °C.
The result for `CCCCCCCN(CCO)c1cccc(O)c1` reads 45 to 47 °C.
The result for `CCc1nc(C)cn1-c1ccc2nc(NC(=O)c3ccc(C(C)(C)C)cc3)cn2n1` reads 220 to 221 °C; that for `O=C(O)Cc1ccc(Br)c(O)c1Br`, 186 °C; that for `CCCOC(=O)c1ccc(C#CC2(O)CN3CCC2CC3)cc1O` (centres undefined), 173 to 175 °C.
The result for `COc1cc(C(=O)N(C(C)C)C(C)C)ccc1OCCCCCOc1ccc(C#N)cc1` reads 90 to 92 °C; that for `N#Cc1cc([N+](=O)[O-])ccc1Oc1ccc(Oc2ccccc2)cc1`, 150 to 152 °C.
The molecule `CSc1nc2c(c(=O)[nH]1)CC2` came in with a melting point of 215 °C.
In the case of `O=C(O)CC/C=C/c1nn(-c2ccccc2)c2c1CCC2` it was 122 to 125 °C.
The molecule `O=C(Cn1cnc(-c2ccc(OCc3ccccc3)cc2)n1)c1ccc(F)cc1F` displayed a melting point of 142 to 143 °C.
Molecule `CC12CCC3c4ccc(C(=O)O)cc4CCC3C1CCC2C(=O)C=Cc1ccccc1` (centres undefined) yielded a melting point of 177 to 181 °C.
In the case of `O=C(O)C(CCN1C(=O)c2ccccc2C1=O)CS(=O)(=O)c1ccc(-c2ccccc2)cc1` (centres undefined) it was 180 °C; in that of `COc1c(CS(=O)(=O)C2=NOC(C)(C)C2)c(C(F)(F)F)nn1C`, 113 to 114 °C; in that of `CCOC(=O)C#CC(OC(N)=O)c1ccccc1` (centres undefined), 82 °C.
In the case of `N#CC(C#N)C(=O)c1ccc2ccccc2c1` it was 121 °C; in that of `COc1ccc(-c2cc(=Nc3c(C)cc(C)cc3C)n(C)c3nnnn23)cc1OC`, 198 to 200 °C.
The result for `O=c1[nH]c2c(Cl)cccc2c(=O)n1CCCN1CC=C(c2cccc(Cl)c2)CC1` reads 210 to 215 °C.
In turn, `O=c1[nH]c2ccc(F)cc2c2cc(CO)nn12` showed a melting point of 295 to 297 °C.
In the case of `ONCc1cccc(I)c1` it was 63 to 70 °C.
`c1ccc(COc2ccc(Nc3ncnc4ncccc34)cc2)cc1` yielded a melting point of 235 to 237 °C.
Molecule `CN(C)CCNC(=O)Cc1ccc(NC(=O)Cc2ccc([N+](=O)[O-])cc2)cc1` showed a melting point of 160 to 162 °C.
Turning to `O=c1[nH]c2ccccc2c2ccnn12`, the melting point is 253 to 254 °C.
Turning to `CCCc1c(OCCCO)ccc(C(C)=O)c1O`, the melting point is 57 to 59 °C.
The molecule `O=C1CCCC(c2ccc(F)cc2)CN1` (centres undefined) came in with a melting point of 158 to 160 °C.
In the case of `Cc1oc(-c2ccco2)nc1COc1ccc(CO)cc1Cl` it was 143 to 144 °C.
On to `Cc1cc(C)c(CS(=O)c2ccccc2)c(-c2ccc(F)c(C)c2)c1` (centres undefined), for which the melting point was 75 to 85 °C.
In the case of `CCc1nc(Cl)c(C(=O)NC)n1Cc1ccc2oc(-c3ccccc3N)c(Br)c2c1` it was 68 to 70 °C; in that of `Oc1ccccc1CNc1cncc(Br)c1`, 184 °C.
Consider `COc1ccc(-c2cnc3ncnn3c2NC2CCCC2)cc1`, for which the melting point amounted to 127 °C.
`CNC(=O)C(=O)CCCCCCc1cnc(-c2ccc(Br)cc2)o1` had a melting point of 90 to 92 °C.
As for `CCOC(=O)c1cn(CCc2ccc(O)cc2)c2cc(C3CC3)nn2c1=O`, the melting point fell in the range of 95 to 100 °C.
In the case of `C=CCn1cc2c(c1)-c1ccc(Cl)cc1C(c1ccccc1F)=NC2`, the melting point lay in the range of 100 to 102 °C.
The molecule `CC(C)(C)NC(=O)c1ccc(S(=O)(=O)Cl)cc1` gave a melting point of 179 °C.
The result for `COc1ccc(-c2cc(C(=O)O)c(=O)n(CCCc3ccc(F)cc3)n2)cc1F` reads 185 to 187 °C; that for `O=C(COCc1ccc(Cl)cc1Cl)c1ccccc1`, 83 to 85 °C.
The result for `O=S(=O)(c1cc(Cl)ccc1O)N1CCCC1` reads 101 to 102 °C; that for `CC(=O)c1ccc(-c2nc(O)c(C)s2)cc1`, 219 to 220 °C; that for `Cc1cc(CCCCCOc2c(Cl)cc(-c3nnn[nH]3)cc2Cl)on1`, 122 to 123 °C.
Molecule `COc1cc(OC)nc(Sc2c(NS(=O)(=O)CC#N)nc(C)n2C)n1` gave a melting point of 223 to 225 °C.
Regarding `COc1cc(OC2CCN(C(=O)Cc3c[nH]cn3)CC2)ccc1CC(=O)N1CCN(c2ccccc2C)CC1C(N)=O` (centres undefined), the melting point is 120 to 124 °C.
Molecule `Cc1cc(COc2ccc(S(=O)(=O)NC[C@@H](C(=O)NO)N3CCN(C(=O)OCc4ccccc4)CC3)cc2)c2ccccc2n1` came in with a melting point of 162 °C.
`O=C(O)CCNC(=O)CNC(=O)c1csc(NC(=O)NCc2ccccc2)n1`: the melting point worked out at 174 °C.
The result for `CNC(=NS(=O)(=O)C(F)(F)F)SC` reads 88 to 89 °C.
The result for `O=C1C=C(c2ccc(F)cc2)CN1` reads 190 °C; that for `CCN(CC)Cc1ccc(-c2cccc(-c3ccnc4c(C(=O)c5cccs5)cnn34)c2)cc1`, 144 to 146 °C; that for `Cc1nc(NC(=O)c2ccccc2)sc1C(=O)NCc1ccccc1C(F)(F)F`, 198 to 199 °C.
Take `CC(C)c1ccc(C(=O)NCCOc2ccc(C(=O)O)cc2)cc1`: the melting point lay in the range of 202 to 203 °C.
